This note sets out measurements from patent US9089569B2, “1,2,6-substituted benzimidazoles as flap modulators” (JANSSEN PHARMACEUTICA NV, priority 2013, dated 2015).

Structures are written as SMILES. Counter-ions that a name gives are not always drawn. A value given as a limit tells only on which side of the number the result lay.

Test [1] relates to leukotriene pathway in human whole blood (LTB4). Briefly: Human whole blood assay (LTB4, A23187-stimulated). In kind it is cell-based. As to conditions: human whole blood diluted 1:1, calcium ionophore A23187 stimulation, LTB4 levels. As to the method: An in vitro cellular assay was performed using human whole blood collected in heparin-containing tubes, which was used to test the ability of compounds to modulate the leukotriene pathway in human whole blood. The blood was diluted 1:1 in RPMI medium, pre-incubated for 15 min at 37° Celsius with test compounds at various concentrations, and then stimulated with calcium ionophore, A23187 (7 μg/mL), for 30 min at 37° Celsius. The samples were then centrifuged and plasma was removed. The plasma was diluted in assay buffer and LTB4 levels were measured using a commercial kit (Enzo Life Sciences). The concentration of each compound that was required for half-maximal inhibition (modulation) of […] (IC50) was calculated by a 4-parameter equation using the program GraphPad Prism (GraphPad software). For analysis, data are imported into 3DX and aggregated as the average of duplicates of the calculated ratios in order to calculate Ki and IC50 values. Numbers in parentheses are the number of runs for the assay.

The target in the next test is human FLAP (Homo sapiens (Human), UniProt P20292). Briefly: FLAP binding assay (HTRF). As to conditions: wild type FLAP-containing membranes, HTRF format. As for the experimental part: The assay below is used to test the modulatory activity of compounds against FLAP. Human and mouse FLAP-encoding DNA was amplified by polymerase chain reaction and cloned into pFastBac1 (Invitrogen) with a NH2-terminal 6-His tag for expression in Spodoptera frugiperda (Sf-9) cells. FLAP-containing membranes were prepared as was a FITC-labeled FLAP modulator (3-(3-(tert-butylthio)-1-(4-chlorobenzyl)-5-(quinolin-2-ylmethoxy)-1H-indol-2-yl)-2,2-dimethylpropanoic acid). The FLAP binding assay is performed in HTRF format (homogeneous time resolved fluorescence). […] The reaction is allowed to proceed for two hours after which the plate is read on an Envision plate reader in HTRF mode. Data are expressed as a HTRF ratio.
For human FLAP binding assays, data are analyzed with 3DX Explorer software. […] For analysis, data from multiple runs are averaged and each compound may be tested in 2 to 20 runs. Each run comprises two plates and each plate includes duplicates. Data from each plate is averaged and data are imported into 3DX. The data from multiple runs are aggregated as the average of duplicates of the calculated ratios in order to calculate Ki and IC50 values. Numbers in parentheses are the number of runs for the assay.

human FLAP, sequence (P20292 whole entry): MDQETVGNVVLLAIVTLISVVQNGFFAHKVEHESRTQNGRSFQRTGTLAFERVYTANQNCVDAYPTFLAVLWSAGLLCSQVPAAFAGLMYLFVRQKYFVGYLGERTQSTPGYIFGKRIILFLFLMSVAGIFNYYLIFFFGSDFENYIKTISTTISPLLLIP

As a reminder, the IC50 is the concentration that gives 50% inhibition. In the case of `Cn1ccc(COc2ccc3nc([C@@H]4CCCC[C@@H]4C(=O)O)n(Cc4ccc(OC(F)(F)F)cc4)c3c2)n1` (relative stereo) [Example 45, (1R*,2S*)-2-{6-[(1-Methyl-1H-pyrazol-3-yl)methoxy]-1-[4-(trifluoromethoxy)benzyl]-1H-benzimidazol-2-yl}cyclohexanecarboxylic acid], the IC50 in test [1] (Homo sapiens) is greater than 10000 nM. Take `Cn1ccc(COc2ccc3nc([C@@H]4CCCC[C@@H]4C(=O)O)n(Cc4ccc(OC(F)(F)F)cc4)c3c2)n1` (relative stereo) [Example 36, (1S*,2R*)-2-{6-[(1-Methyl-1H-pyrazol-3-yl)methoxy]-1-[4-(trifluoromethoxy)benzyl]-1H-benzimidazol-2-yl}cyclohexanecarboxylic acid]: in test [1] (Homo sapiens), the IC50 stood at 590 nM. Take `CCC(CC)(Cc1nc2ccc(OCc3ccn(C)n3)cc2n1Cc1ccc(-c2ccc(C(F)(F)F)cc2)cc1)C(=O)O` [Example 188, 2-ethyl-2-((6-((1-methyl-1H-pyrazol-3-yl)methoxy)-1-((4′-(trifluoromethyl)-[1,1′-biphenyl]-4-yl)methyl)-1H-benzo[d]imidazol-2-yl)methyl)butanoic acid]: the IC50 in test [1] worked out at 550 nM. With `Cn1ccc(COc2cc(F)c3nc(C4CCCC[C@@H]4C(=O)O)n(Cc4ccc(N5CC(F)(F)C5)cc4)c3c2)n1` (mixture of isomers) [Example 168, racemic cis-2-{1-[4-(3,3-Difluoroazetidin-1-yl)benzyl]-4-fluoro-6-[(1-methyl-1H-pyrazol-3-yl)methoxy]-1H-benzimidazol-2-yl}cyclohexanecarboxylic acid as the formate salt], the IC50 in test [1] was determined as 3570 nM.

As to `Cc1ccc(COc2ccc3nc([C@@H]4[C@H](C(=O)O)C4(C)C)n(Cc4ccc(OC(F)(F)F)cc4)c3c2)nc1` (racemic) [Example 25, racemic cis-2,2-Dimethyl-3-{6-[(5-methylpyridin-2-yl)methoxy]-1-[4-(trifluoromethoxy)benzyl]-1H-benzimidazol-2-yl}cyclopropanecarboxylic acid], the IC50 in test [1] turned out to be 3120 nM. The same measure, in the same setting: to `Cc1ccc(COc2ccc3nc([C@H]4CCCC[C@H]4C(=O)O)n(Cc4ccc(OC(F)(F)F)c(Cl)c4)c3c2)nc1` (racemic) [Example 32, racemic cis-2-{1-[3-Chloro-4-(trifluoromethoxy)benzyl]-6-[(5-methylpyridin-2-yl)methoxy]-1H-benzimidazol-2-yl}cyclohexanecarboxylic acid] belongs 210 nM. The term Ki denotes the dissociation constant of the complex between target and ligand, obtained from inhibition or displacement. A higher Ki goes with weaker binding. Compound `Cn1ccc(COc2cc3c(cc2F)nc([C@@H]2CCCC[C@@H]2C(=O)O)n3Cc2ccc(OC(F)(F)F)cc2F)n1` (racemic) [Example 90, racemic cis-2-{5-Fluoro-1-[2-fluoro-4-(trifluoromethoxy)benzyl]-6-[(1-methyl-1H-pyrazol-3-yl)methoxy]-1H-benzimidazol-2-yl}cyclohexanecarboxylic acid] registered a Ki at human FLAP of 27 nM. In other words, the double-digit nanomolar range.
